Results reported in patent US20130096119A1, “Isoquinolin-3-Ylurea Derivatives” (priority 2010, published 2013).
Converted amounts (≈) assume the structure as drawn.

system: S. pneumoniae ATCC 49619; assay: Minimal inhibitory concentration (MIC) by microdilution method (CLSI M7-A7); format: cell-based, Streptococcus pneumoniae; details: Streptococcus pneumoniae, ATCC49619, cation-adjusted Mueller-Hinton Broth supplemented with 3% (v/v) lysed horse blood
Procedure, shortened: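 For S. pneumoniae, cation-adjusted Mueller-Hinton broth carried 3% (v/v) lysed horse blood; MICs (mg/l) were read by CLSI M7-A7 microdilution.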

CCNC(=O)Nc1cc2cc(-c3ccncc3)cc(C)c2cn1 [Example 21, 1-ethyl-3-(8-methyl-6-pyridin-4-yl-isoquinolin-3-yl)-urea] was tested. Which MIC did it give?
Its MIC is 1 µg/mL (≈ 3.26 µM).

CCNC(=O)Nc1cc2c(F)c(-c3cccnc3)cc(C)c2cn1 [Example 47, 1-ethyl-3-(5-fluoro-8-methyl-6-pyridin-3-yl-isoquinolin-3-yl)-urea] was tested. Which MIC did it give?
Its MIC is 2 µg/mL (≈ 6.17 µM).

Which MIC does the source give for CCNC(=O)Nc1cc2c(-c3ccnc(OC)c3)ccc(Nc3cccnc3)c2cn1 [Example 225, 1-ethyl-3-[5-(2-methoxy-pyridin-4-yl)-8-(pyridin-3-ylamino)-isoquinolin-3-yl]urea] here?
The MIC was 0.125 µg/mL (≈ 0.302 µM).

With CCNC(=O)Nc1cc2cccc(Nc3cccc(CC(N)=O)c3)c2cn1.Cl [Example 255, 2-{3-[3-(3-ethyl-ureido)-isoquinolin-8-ylamino]-phenyl}-acetamide hydrochloride] as the molecule, how does the MIC read?
Its MIC is 4 µg/mL.

For CCNC(=O)Nc1cc2cc(NCc3cccc(C(=O)OC)c3)cc(C)c2cn1 [Example 126, 3-{[3-(3-ethyl-ureido)-8-methyl-isoquinolin-6-ylamino]-methyl}-benzoic acid methyl ester], which MIC is on record?
Its MIC is 8 µg/mL (≈ 20.4 µM).

With CCNC(=O)Nc1cc2cccc(Nc3ccc(CC(=O)NC)cc3)c2cn1.Cl [Example 207, 2-{4-[3-(3-ethyl-ureido)-isoquinolin-8-ylamino]phenyl}-N-methyl-acetamide hydrochloride] as the molecule, how does the MIC read?
Its MIC is 2 µg/mL.

Which MIC does the source give for CCNC(=O)Nc1cc2c(-c3ccnc(Cl)c3)ccc(C)c2cn1 [Example 27, 1-[5-(2-chloro-pyridin-4-yl)-8-methyl-isoquinolin-3-yl]-3-ethyl-urea] here?
The MIC was 2 µg/mL (≈ 5.87 µM).

With CCNC(=O)Nc1cc2cccc(Nc3ccc(C)nc3)c2cn1.Cl [Example 164, 1-ethyl-3-[8-(6-methyl-pyridin-3-ylamino)-isoquinolin-3-yl]-urea hydrochloride] as the molecule, how does the MIC read?
Its MIC is 2 µg/mL.

How did the MIC turn out when CCNC(=O)Nc1cc2c(-c3cncc(F)c3)ccc(C)c2cn1 [Example 9, 1-ethyl-3-[5-(5-fluoro-pyridin-3-yl)-8-methyl-isoquinolin-3-yl]-urea] was run?
The MIC was 2 µg/mL (≈ 6.17 µM).

CCNC(=O)Nc1cc2cccc(Nc3cccc(CC(=O)O)c3)c2cn1 [Example 209, {3-[3-(3-ethyl-ureido)-isoquinolin-8-ylamino]-phenyl}-acetic acid] was tested. Which MIC did it give?
Its MIC is 4 µg/mL (≈ 11 µM).

Which MIC does the source give for CCNC(=O)Nc1cc2cc(-c3cncc(S(C)(=O)=O)c3)cc(C)c2cn1 [Example 103, 1-ethyl-3-[6-(5-methanesulfonyl-pyridin-3-yl)-8-methyl-isoquinolin-3-yl]-urea] here?
Its MIC is 0.5 µg/mL (≈ 1.3 µM).

CCNC(=O)Nc1cc2c(-c3cccnn3)ccc(C)c2cn1.Cl [Example 282, 1-ethyl-3-(8-methyl-5-pyridazin-3-yl-isoquinolin-3-yl)-urea hydrochloride] was tested. Which MIC did it give?
Its MIC is 8 µg/mL.

With CCNC(=O)Nc1cc2c(NCC)ccc(C)c2cn1 [Example 63, 1-ethyl-3-(5-ethylamino-8-methyl-isoquinolin-3-yl)-urea] as the molecule, how does the MIC read?
Its MIC is 2 µg/mL (≈ 7.34 µM).

For CCNC(=O)Nc1cc2c(-c3cccnc3)ccc(Oc3cccnc3)c2cn1 [Example 223, 1-ethyl-3-[5-pyridin-3-yl-8-(pyridin-3-yloxy)-isoquinolin-3-yl]-urea], which MIC is on record?
Its MIC is 0.5 µg/mL (≈ 1.3 µM).

How did the MIC turn out when CCNC(=O)Nc1cc2c(-c3ccnc(OC)c3)ccc(C)c2cn1 [Example 42, 1-ethyl-3-[5-(2-methoxy-pyridin-4-yl)-8-methyl-isoquinolin-3-yl]-urea] was run?
Its MIC is 2 µg/mL (≈ 5.95 µM).

Which MIC does the source give for CCNC(=O)Nc1cc2cc(NCc3ccncc3)cc(C)c2cn1.Cl [Example 122, 1-ethyl-3-{8-methyl-6-[(pyridin-4-ylmethyl)-amino]-isoquinolin-3-yl}-urea hydrochloride] here?
Its MIC is 8 µg/mL.

With CCNC(=O)Nc1cc2c(F)ccc(NCc3cccnc3)c2cn1 [Example 55, 1-ethyl-3-{5-fluoro-8-[(pyridin-3-ylmethyl)-amino]-isoquinolin-3-yl}-urea] as the molecule, how does the MIC read?
The MIC was 8 µg/mL (≈ 23.6 µM).

Which MIC does the source give for CCNC(=O)Nc1cc2cccc(Nc3cncc(OC)c3)c2cn1 [Example 177, 1-ethyl-3-[8-(5-methoxy-pyridin-3-ylamino)-isoquinolin-3-yl]-urea] here?
The MIC was 2 µg/mL (≈ 5.93 µM).

Which MIC does the source give for CCNC(=O)Nc1cc2c(-c3ccc(CO)cc3)ccc(Nc3cccc(C(=O)NC)c3)c2cn1 [Example 250, 3-[3-(3-ethyl-ureido)-5-(4-hydroxymethyl-phenyl)-isoquinolin-8-ylamino]-N-methyl-benzamide] here?
The MIC was 1 µg/mL (≈ 2.13 µM).

How did the MIC turn out when CCNC(=O)Nc1cc2cccc(COc3ccccc3C(=O)OC)c2cn1.Cl [Example 258, 2-[3-(3-ethyl-ureido)-isoquinolin-8-ylmethoxy]-benzoic acid methyl ester hydrochloride] was run?
Its MIC is 8 µg/mL.

With CCNC(=O)Nc1cc2cccc(Nc3cc(F)ccn3)c2cn1.Cl [Example 158, 1-ethyl-3-[8-(4-fluoro-pyridin-2-ylamino)-isoquinolin-3-yl]-urea hydrochloride] as the molecule, how does the MIC read?
Its MIC is 2 µg/mL.

How did the MIC turn out when CCNC(=O)Nc1cc2c(-c3cccc(CN)c3)ccc(C)c2cn1 [Example 11, 1-[5-(3-(aminomethyl)-phenyl)-8-methyl-isoquinolin-3-yl]-3-ethyl-urea] was run?
The MIC was 2 µg/mL (≈ 5.98 µM).

How did the MIC turn out when CCNC(=O)Nc1cc2cccc(Nc3ccncn3)c2cn1 [Example 151, 1-ethyl-3-[8-(pyrimidin-4-ylamino)-isoquinolin-3-yl]-urea] was run?
Its MIC is 4 µg/mL (≈ 13 µM).

CCNC(=O)Nc1cc2cc(-c3ccncc3Cl)cc(C)c2cn1 [Example 98, 1-[6-(3-chloro-pyridin-4-yl)-8-methyl-isoquinolin-3-yl]-3-ethyl-urea] was tested. Which MIC did it give?
Its MIC is 4 µg/mL (≈ 11.7 µM).

How did the MIC turn out when CCNC(=O)Nc1cc2cc(NCc3ccc4cc[nH]c4c3)cc(C)c2cn1.Cl [Example 134, 1-ethyl-3-{6-[(1H-indol-6-ylmethyl)-amino]-8-methyl-isoquinolin-3-yl}-urea hydrochloride] was run?
Its MIC is 16 µg/mL.

Which MIC does the source give for CCNC(=O)Nc1cc2cc(NCc3cccc(-n4cncn4)c3)cc(C)c2cn1 [Example 187, 1-ethyl-3-[8-methyl-6-(3-[1,2,4]-triazol-1-yl-benzylamino)-isoquinolin-3-yl]-urea] here?
The MIC was 8 µg/mL (≈ 19.9 µM).

With CCNC(=O)Nc1cc2cc(-c3cncc4ccccc34)cc(C)c2cn1 [Example 91, 1-ethyl-3-(8′-methyl-[4,6′]biisoquinolinyl-3′-yl)-urea] as the molecule, how does the MIC read?
The MIC was 2 µg/mL (≈ 5.61 µM).

How did the MIC turn out when CCNC(=O)Nc1cc2cc(-c3ccccc3O)cc(C)c2cn1 [Example 109, 1-ethyl-3-[6-(2-hydroxy-phenyl)-8-methyl-isoquinolin-3-yl]-urea] was run?
Its MIC is 2 µg/mL (≈ 6.22 µM).

For CCNC(=O)Nc1cc2c(-c3ccnc(C)c3)ccc(Nc3cccc(C(=O)O)c3)c2cn1 [Example 246, 3-[3-(3-ethyl-ureido)-5-(2-methyl-pyridin-4-yl)-isoquinolin-8-ylamino]-benzoic acid], which MIC is on record?
The MIC was 0.5 µg/mL (≈ 1.13 µM).

With CCNC(=O)Nc1cc2cc(-c3ccc4c(c3)OCO4)cc(C)c2cn1 [Example 77, 1-(6-(benzo[1,3]dioxol-5-yl)-8-methyl-isoquinolin-3-yl)-3-ethyl-urea] as the molecule, how does the MIC read?
The MIC was 1 µg/mL (≈ 2.86 µM).

Which MIC does the source give for CCNC(=O)Nc1cc2cccc(Nc3ccc(NC(C)=O)cc3)c2cn1 [Example 173, N-{4-[3-(3-ethyl-ureido)-isoquinolin-8-ylamino]-phenyl}-acetamide] here?
Its MIC is 2 µg/mL (≈ 5.5 µM).

How did the MIC turn out when CCNC(=O)Nc1cc2cccc(Nc3cccc(CC(=O)N(C)C)c3)c2cn1.Cl [Example 211, 2-{3-[3-(3-ethyl-ureido)-isoquinolin-8-ylamino]phenyl}-N,N-dimethyl-acetamide hydrochloride] was run?
Its MIC is 4 µg/mL.

Which MIC does the source give for CCNC(=O)Nc1cc2c(-c3ccc(C(=O)NC)cc3)ccc(C)c2cn1 [Example 6, 4-[3-(3-ethyl-ureido)-8-methyl-isoquinolin-5-yl]-N-methyl-benzamide] here?
The MIC was 0.5 µg/mL (≈ 1.38 µM).

same assay, conditions: cation-adjusted Mueller-Hinton Broth supplemented with 3% (v/v) lysed horse blood

“1-[8-(2,4-dimethyl-imidazol-1-ylmethyl)-isoquinolin-3-yl]-3-ethyl-urea and 1-[8-(2,5-dimethyl-imidazol-1-ylmethyl)-isoquinolin-3-yl]-3-ethyl-urea [Example 296]” was tested. Which “MIC for S. pneumoniae ATCC 49619” value did it give?
Its value is 8 µg/mL.
